Tests used:
[1] = Retention of chlorine in air dried coatings on soft surface substrates (iodometric titration); type: physicochemical
Text: The purpose of this experiment was to measure the beneficial effect of binder plus SHA on retention of chlorine in air dried coatings of N-halamine formulations on a soft surface substrate. Solutions of MCDMH, MCDMH plus hydroxyethylcellulose binder plus SHA, each containing equivalent amounts of oxidative Cl were applied to 9 cm^2 of soft surface substrate (cotton fabrics or paper), and allowed to air dry at room temperature in a chemical fume hood. Determinations of chlorine per cm^2 were made on fabrics sampled after 4 hours, 24 hours, 48 hours, and 96 hours. The remaining chlorine was measured by iodometric titration after soaking of test samples in deionized water for 1 hour at room temperature.

[2] = Retention of chlorine in air dried coatings on hard surface substrate (iodometric titration); type: physicochemical; conditions: Formica coupons
Method: The purpose of this experiment was to measure the effect of binder plus SHA on retention of chlorine in air dried coatings of water-based N-halamine formulations on a hard surface substrate. The procedure used one gram of MCDMH with or without 0.2 grams of hydroxyethylcellulose binder and 0.1 grams of SHA dissolved in 100 ml of water as the surface treatments. Solutions of MCDMH, MCDMH plus binder and SHA containing equivalent amounts of oxidative chlorine were applied to 9 cm^2 of hard surface substrate (Formica coupons), and allowed to dry at room temperature in a chemical fume hood. Determinations of chlorine levels per cm^2 were made on coupons sampled after 4 hours, 24 hours, 48 hours, and 96 hours. The chlorine remaining on each surface was measured by iodometric titration of solutions obtained after soaking of test samples in deionized water for 1 hour at room temperature.

CC1(C)NC(=O)N(Cl)C1=O [MCDMH]
Chlorine Content ([1]; Cotton, 4 h): 2.41 ×10^18 Cl/cm^2
Chlorine Content ([1]; Cotton, 24 h): 2.04 ×10^18 Cl/cm^2
Chlorine Content ([1]; Cotton, 48 h): 1.56 ×10^18 Cl/cm^2
Chlorine Content ([1]; Cotton, 96 h): 0.89 ×10^18 Cl/cm^2
Chlorine Content ([1]; Paper, 4 h): 2.74 ×10^18 Cl/cm^2
Chlorine Content ([1]; Paper, 24 h): 2.12 ×10^18 Cl/cm^2
Chlorine Content ([1]; Paper, 48 h): 1.87 ×10^18 Cl/cm^2
Chlorine Content ([1]; Paper, 96 h): 1.04 ×10^18 Cl/cm^2
Chlorine Content ([2]; 4 h): 3.61 ×10^18 Cl/cm^2
Chlorine Content ([2]; 24 h): 3.25 ×10^18 Cl/cm^2
Chlorine Content ([2]; 48 h): 3.01 ×10^18 Cl/cm^2
Chlorine Content ([2]; 96 h): 2.75 ×10^18 Cl/cm^2

— patent publication US10028482B2, “Disinfecting and deodorizing compositions and methods with novel polymeric binding system” (priority 2014, dated 2018)
